Reference: ChEMBL document CHEMBL1154809, “Conventional and microwave assisted synthesis of small molecule based biologically active heterocyclic amidine derivatives” (2010)
Activity calls are given as the source filed them. The calls are words filed in the database; no cut-off is given here.

Assays:
Rattus norvegicus = assay: Antiinflammatory activity against carrageenan-induced paw oedema in Charles Foster albino rat at 50 mg/kg, po administered 30 mins before carrageenan challenge measured after 1 to 3 hrs by water plethysmometer; format: functional
HCT-15 = assay: Anticancer activity against human HCT15 cells at 10 uM after 48 hrs by sulforhodamine B assay; format: functional, cell-based
HepG32 = assay: Anticancer activity against human […] cells at 10 uM after 48 hrs by sulforhodamine B assay; format: functional, cell-based
A549 = assay: Anticancer activity against human A549 cells at 10 uM after 48 hrs by sulforhodamine B assay; format: functional, cell-based
HOP-62 = assay: Anticancer activity against human HOP62 cells at 10 uM after 48 hrs by sulforhodamine B assay; format: functional, cell-based
IMR-32 = assay: Anticancer activity against human IMR32 cells at 10 uM after 48 hrs by sulforhodamine B assay; format: functional, cell-based
DU-145 = assay: Anticancer activity against human DU145 cells at 10 uM after 48 hrs by sulforhodamine B assay; format: functional, cell-based

In the case of `N/C(=N/CCc1c[nH]c2ccccc12)c1ccccn1`, the Activity (Rattus norvegicus) is reported as 23.6%, the Activity (HCT-15) is reported as “inactive” and the Activity (HepG32) is reported as “inactive”. For the same molecule, the Activity (A549) was “inactive”, the Activity (HOP-62) was “inactive” and the Activity (IMR-32) was “inactive”. For the same molecule, the Activity (DU-145) was “inactive”.
For `N/C(=N/CCc1c[nH]c2ccccc12)c1cnccn1`, the Activity (Rattus norvegicus) was 23.9%, the Activity (HCT-15) was “inactive” and the Activity (HepG32) was “inactive”. The Activity (A549) was “inactive”, the Activity (HOP-62) was “inactive” and the Activity (IMR-32) was “inactive”. The Activity (DU-145) was “inactive”.
`N/C(=N/Cc1ccco1)c1cnccn1` was tested, and the Activity (Rattus norvegicus) was 36.6%, the Activity (HCT-15) was “inactive” and the Activity (HepG32) was “inactive”. For the same molecule, the Activity (A549) was “inactive”, the Activity (HOP-62) was “inactive” and the Activity (IMR-32) was “inactive”. The Activity (DU-145) was “inactive”.
`N/C(=N/Cc1ccccn1)c1cnccn1` was tested, and the Activity (Rattus norvegicus) was 0%, the Activity (HCT-15) was “inactive” and the Activity (HepG32) was “inactive”. The Activity (A549) was “inactive”, the Activity (HOP-62) was “inactive” and the Activity (IMR-32) was “inactive”. The Activity (DU-145) was “inactive”.
`N/C(=N/Cc1ccncc1)c1cnccn1` was tested, and the Activity (Rattus norvegicus) was 32%, the Activity (HCT-15) was “inactive” and the Activity (HepG32) was “inactive”. For the same molecule, the Activity (A549) was “inactive”, the Activity (HOP-62) was “inactive” and the Activity (IMR-32) was “inactive”. For the same molecule, the Activity (DU-145) was “inactive”.
In the case of `N/C(=N/Cc1ccncc1)c1ccncc1`, the Activity (Rattus norvegicus) is reported as 31%, the Activity (HCT-15) is reported as “inactive” and the Activity (HepG32) is reported as “inactive”. The Activity (A549) was “inactive”, the Activity (HOP-62) was “inactive” and the Activity (IMR-32) was “inactive”. The Activity (DU-145) was “inactive”.
`N/C(=N/Cc1ccncc1)c1ccccn1` was tested, and the Activity (Rattus norvegicus) was 28.2%, the Activity (HCT-15) was “inactive” and the Activity (HepG32) was “inactive”. For the same molecule, the Activity (A549) was “inactive”, the Activity (HOP-62) was “inactive” and the Activity (IMR-32) was “inactive”. The Activity (DU-145) was “inactive”.
In the case of `CC(C)Cc1ccc(C(C)C(=O)O)cc1` (stereo unspecified) [IBUPROFEN], the Activity (Rattus norvegicus) is reported as 39%, the Activity (HCT-15) is reported as “inactive” and the Activity (HepG32) is reported as “inactive”. For the same molecule, the Activity (A549) was “inactive”, the Activity (HOP-62) was “inactive” and the Activity (IMR-32) was “inactive”. For the same molecule, the Activity (DU-145) was “inactive”.
For `N/C(=N/CCc1c[nH]cn1)c1ccncc1`, the Activity (Rattus norvegicus) was 22.1%, the Activity (HCT-15) was “inactive” and the Activity (HepG32) was “inactive”. The Activity (A549) was “inactive”, the Activity (HOP-62) was “inactive” and the Activity (IMR-32) was “inactive”. For the same molecule, the Activity (DU-145) was “inactive”.
In the case of `N/C(=N/Cc1ccco1)c1ccccn1`, the Activity (Rattus norvegicus) is reported as 28.7%, the Activity (HCT-15) is reported as “inactive” and the Activity (HepG32) is reported as “inactive”. For the same molecule, the Activity (A549) was “inactive”, the Activity (HOP-62) was “inactive” and the Activity (IMR-32) was “inactive”. For the same molecule, the Activity (DU-145) was “inactive”.
With `N/C(=N/CCCn1ccnc1)c1ccccn1` the Activity (Rattus norvegicus) was 18.8%, the Activity (HCT-15) was “inactive” and the Activity (HepG32) was “inactive”. The Activity (A549) was “inactive”, the Activity (HOP-62) was “inactive” and the Activity (IMR-32) was “inactive”. For the same molecule, the Activity (DU-145) was “inactive”.
For `N/C(=N/CCc1c[nH]cn1)c1ccccn1`, the Activity (Rattus norvegicus) was 26.8%, the Activity (HCT-15) was “inactive” and the Activity (HepG32) was “inactive”. The Activity (A549) was “inactive”, the Activity (HOP-62) was “inactive” and the Activity (IMR-32) was “inactive”. For the same molecule, the Activity (DU-145) was “inactive”.
With `N/C(=N/CCc1c[nH]cn1)c1cnccn1` the Activity (Rattus norvegicus) was 25.4%, the Activity (HCT-15) was “inactive” and the Activity (HepG32) was “inactive”. For the same molecule, the Activity (A549) was “inactive”, the Activity (HOP-62) was “inactive” and the Activity (IMR-32) was “inactive”. For the same molecule, the Activity (DU-145) was “inactive”.
In the case of `N/C(=N/Cc1ccco1)c1ccncc1`, the Activity (Rattus norvegicus) is reported as 15.2%, the Activity (HCT-15) is reported as “inactive” and the Activity (HepG32) is reported as “inactive”. For the same molecule, the Activity (A549) was “inactive”, the Activity (HOP-62) was “inactive” and the Activity (IMR-32) was “inactive”. The Activity (DU-145) was “inactive”.
With `N/C(=N/CCCn1ccnc1)c1ccncc1` the Activity (Rattus norvegicus) was 10%, the Activity (HCT-15) was “inactive” and the Activity (HepG32) was “inactive”. The Activity (A549) was “inactive”, the Activity (HOP-62) was “inactive” and the Activity (IMR-32) was “inactive”. For the same molecule, the Activity (DU-145) was “inactive”.
`N/C(=N/CCCn1ccnc1)c1cnccn1` was tested, and the Activity (Rattus norvegicus) was 21.8%, the Activity (HCT-15) was “inactive” and the Activity (HepG32) was “inactive”. For the same molecule, the Activity (A549) was “inactive”, the Activity (HOP-62) was “inactive” and the Activity (IMR-32) was “inactive”. The Activity (DU-145) was “inactive”.
`N/C(=N/CCc1c[nH]c2ccccc12)c1ccncc1` was tested, and the Activity (Rattus norvegicus) was 28.2%, the Activity (HCT-15) was “inactive” and the Activity (HepG32) was “inactive”. For the same molecule, the Activity (A549) was “inactive”, the Activity (HOP-62) was “inactive” and the Activity (IMR-32) was “inactive”. For the same molecule, the Activity (DU-145) was “inactive”.
For `N/C(=N/Cc1ccccn1)c1ccncc1`, the Activity (Rattus norvegicus) was 33.8%, the Activity (HCT-15) was “inactive” and the Activity (HepG32) was “inactive”. The Activity (A549) was “inactive”, the Activity (HOP-62) was “inactive” and the Activity (IMR-32) was “inactive”. For the same molecule, the Activity (DU-145) was “inactive”.
